Source: ChEMBL document CHEMBL1156772, “Synthesis, affinity profile and functional activity of potent chiral muscarinic antagonists with a pyrrolidinylfuran structure” (J Med Chem, 2010)

Tests used:
Muscarinic receptor 2 = biological target: T1, Muscarinic receptor 2 (Cavia porcellus, UniProt Q8VH27); experiment: Antagonist activity at muscarinic M2 receptor in guinea pig left atrium assessed as effect on electrically-stimulated inotropic activity after 60 mins; format: functional, tissue-based, Cardiac atrium; settings: read-out: pA2 (converted)
T1 sequence (Q8VH27 whole entry): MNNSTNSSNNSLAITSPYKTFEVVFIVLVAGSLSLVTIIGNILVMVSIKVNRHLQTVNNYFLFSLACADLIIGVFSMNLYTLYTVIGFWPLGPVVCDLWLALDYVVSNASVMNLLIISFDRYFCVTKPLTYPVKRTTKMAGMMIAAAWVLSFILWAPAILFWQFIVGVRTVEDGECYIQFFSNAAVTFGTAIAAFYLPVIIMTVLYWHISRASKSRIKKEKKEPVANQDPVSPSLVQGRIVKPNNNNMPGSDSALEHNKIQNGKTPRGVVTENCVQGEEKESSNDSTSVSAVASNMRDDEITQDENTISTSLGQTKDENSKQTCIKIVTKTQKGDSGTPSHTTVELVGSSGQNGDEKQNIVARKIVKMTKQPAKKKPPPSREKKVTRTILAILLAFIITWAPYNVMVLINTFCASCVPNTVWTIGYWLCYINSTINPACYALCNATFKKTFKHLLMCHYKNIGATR

Muscarinic receptor 4 = biological target: T2, Muscarinic receptor 4 (Cavia porcellus, UniProt Q8VH25); experiment: Antagonist activity at muscarinic M4 receptor in guinea pig lung strips assessed as effect on isotonic contraction after 60 mins; format: functional; settings: read-out: pA2 (converted)
T2 sequence (Q8VH25 whole entry): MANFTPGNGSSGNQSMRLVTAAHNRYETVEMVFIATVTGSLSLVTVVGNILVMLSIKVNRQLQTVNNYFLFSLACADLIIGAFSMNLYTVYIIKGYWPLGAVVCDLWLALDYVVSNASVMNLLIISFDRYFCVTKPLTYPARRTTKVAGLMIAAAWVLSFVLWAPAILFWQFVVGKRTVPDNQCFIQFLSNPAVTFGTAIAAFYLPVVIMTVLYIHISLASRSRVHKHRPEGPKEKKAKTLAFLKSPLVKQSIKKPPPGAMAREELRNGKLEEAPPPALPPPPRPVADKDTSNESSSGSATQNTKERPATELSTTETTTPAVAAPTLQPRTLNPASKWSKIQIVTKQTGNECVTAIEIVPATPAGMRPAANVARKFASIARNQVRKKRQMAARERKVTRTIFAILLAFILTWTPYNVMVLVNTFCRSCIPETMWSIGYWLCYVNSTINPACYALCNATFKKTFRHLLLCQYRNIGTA

**Q.** What does the source list for `C[N+]1(C)[C@@H]2C[C@@H](OC(=O)[C@H](CO)c3ccccc3)C[C@H]1[C@@H]1O[C@@H]12` [METHSCOPOLAMINE]?
**A.** Kb (Muscarinic receptor 2): 0.468 nM; Kb (Muscarinic receptor 4): 6.46 nM
